Data taken from patent US20190209576A1 (AI Therapeutics, Inc., priority 2014, published 2019).

Columns and labels:
Type in all cases: cell-based
[1] = tested on: HT-29 cells; assay: Cell viability (CellTiterGlo), single agent, 120 h; details: Homo sapiens, HT-29, BRAF Mutant (V600E), 5 day assay
Protocol: (§1) For drug studies, HCT116, HT-29, RKO, HCT-15, SW1116, SW480 and SW620 cells were seeded at a density of 750, 8000, 300, 480, 1600, 2000, and 2000 cells per well, respectively, into 96 well plates in a final volume of 50 μL.
(§2) The apilimod used in these studies was apilimod dimesylate.
(§3) All drug dilutions were made up as a 2× stock and 50 μL added to appropriate wells. Cells were treated for 120 h before viability was assessed using CellTiterGlo® (Promega) where the relative luminescence of untreated cells was set to 100% viability and each drug concentration expressed as a percentage of untreated cells. EC50 values were determined using GraphPad Prism (GraphPad Software, Inc). Briefly, raw data was log transformed and then analyzed using nonlinear regression (curve fit) where the data were constrained (bottom=0, top=100).

[2] = tested on: SW480 cells; assay: Cell viability (CellTiterGlo), single agent, 120 h; details: Homo sapiens, SW480, BRAF WT, 5 day assay
Protocol: as §1, §2, §3

[3] = tested on: HCT116 cells; assay: Cell viability (CellTiterGlo), single agent, 120 h; details: Homo sapiens, HCT-116, 120 h; HCT116, BRAF WT, 5 day assay
Protocol: as §1, §2, §3

[4] = tested on: RKO cells; assay: Cell viability (CellTiterGlo), single agent, 120 h; details: Homo sapiens, BRAF Mutant (V600E), 5 day assay
Protocol: as §1, §2, §3

[5] = tested on: SW620 cells; assay: Cell viability (CellTiterGlo), single agent, 120 h; details: Homo sapiens, SW-620, 120 h; SW620, BRAF WT, 5 day assay
Protocol: as §1, §2, §3

[6] = tested on: HCT-15 cells; assay: Cell viability (CellTiterGlo), single agent, 120 h; details: Homo sapiens, HCT-15, BRAF WT, 5 day assay
Protocol: as §1, §2, §3

[7] = tested on: SW1116 cells; assay: Cell viability (CellTiterGlo), single agent, 120 h; details: Homo sapiens, SW 1116, 120 h; SW1116, BRAF WT, 5 day assay
Protocol: as §1, §2, §3

[8] = tested on: colon cancer cell lines; assay: LAM-002 sensitivity (EC90) correlated with SNX10 expression; details: 10 point dose response
Excerpt: Expression profiles were obtained from the public databases CCLE (Barretina, Caponigro, Stransky et al. The Cancer Cell Line Encyclopedia enables predictive modelling of anticancer drug sensitivity. Nature. 2012 Mar. 28; 483(7391):603-7) and COSMIC (Forbes SA1, Beare D2, Gunasekaran P2, et al. COSMIC: exploring the world's knowledge of somatic mutations in human cancer. Nucleic Acids Res. 2015 January; 43 (Database issue):D805-11). R statistical package (R Development Core Team (2008). R: A language and environment for statistical computing. R Foundation for Statistical Computing, Vienna, Austria. ISBN 3-900051-07-0) was used for the normalization of expression and the correlation analysis.
To determine LAM-002 sensitivity in colon cancer cell lines, the EC90 was calculated using a 10 point dose response as described above for EC50 determination. […] These findings support SNX10 expression as a predictive biomarker for LAM-002 sensitivity in colon cancer cells.

EC50 [1]: 19 nM | EC50 [2]: 24 nM | EC50 [3]: 10 nM | EC50 [5]: 9 nM | EC50 [6]: 15 nM | EC50 [7]: 12 nM
SMILES: Cc1cccc(/C=N/Nc2cc(N3CCOCC3)nc(OCCc3ccccn3)n2)c1 [Apilimod]
EC50 [4]: 52 nM | correlation between SNX10 expression and LAM-002 sensitivity (EC90) [8]: colon cancer cells expressing higher levels of SNX10 are the most sensitive to LAM-002
